Data as given in PubChem BioAssay AID2060349 (Molecular Pharmacology Branch, DTP, NCI, 2025).
Several values for one entry are separate records, joined by “and”; a condition that tells them apart may be missing. Equal entries are not always repeated.

Test system: 762968-020-R-J2-PDC spheroids viability
Test: Anticancer human tumor 762968-020-R-J2-PDC patient-derived colon carcinoma cell line growth inhibition [TAK]
Details: spheroids with HUVEC and MSC; for viability, T/C: stronger effect = lower value
Outline: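 Tumor cells were grown as spheroids with HUVEC and hMSC (60:25:15) and treated with targeted agents combined with TAK-243 or ipatasertib. Drugs were tested in half-log steps down from near the clinical Cmax, or from 10 microM where Cmax was unknown.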

[1] = curve of first compound, second compound 0.3 µM
[2] = curve of first compound, second compound 0.949 µM
[3] = curve of first compound, second compound 3 µM
[4] = curve of first compound, second compound 9.49 µM
[5] = curve of first compound, second compound 30 µM
[6] = second compound 0.3 µM, first compound 0.00316 µM
[7] = second compound 0.3 µM, first compound 0.01 µM
[8] = second compound 0.949 µM, first compound 0.00316 µM
[9] = second compound 0.949 µM, first compound 0.01 µM
[10] = second compound 3 µM, first compound 0.00316 µM
[11] = second compound 3 µM, first compound 0.01 µM
[12] = second compound 9.49 µM, first compound 0.00316 µM
[13] = second compound 9.49 µM, first compound 0.01 µM
[14] = second compound 30 µM, first compound 0.00316 µM
[15] = second compound 30 µM, first compound 0.01 µM
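Also: spheroids exposed to drug for 7 days before readout.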
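For viability, T/C in this document: 100% = DMSO vehicle control wells.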

**Q.** How did the viability, T/C (compound 0.0316 µM) turn out when `CC(C)(C)c1nc(-c2cccc(NS(=O)(=O)c3c(F)cccc3F)c2F)c(-c2ccnc(N)n2)s1` was run?
**A.** Its viability, T/C is 85.6% and 94.4%.

**Q.** And the viability, T/C (compound 0.1 µM)?
**A.** The viability, T/C was 82.9% and 88.2%.

**Q.** What about the viability, T/C (compound 0.316 µM) of the same molecule?
**A.** The viability, T/C was 92.5% and 85.2%.

**Q.** What about the viability, T/C (compound 1 µM) of the same molecule?
**A.** Its viability, T/C is 86.4% and 81%.

**Q.** And the viability, T/C (compound 3.16 µM)?
**A.** Its viability, T/C is 90.5% and 88.5%.

**Q.** What about the viability, T/C (compound 10 µM) of the same molecule?
**A.** Its viability, T/C is 99.3% and 86.4%.

**Q.** And the IC50 (curve of compound)?
**A.** Its IC50 is over 10000 nM.

**Q.** Which results are given for `CC(C)CC(NC(=O)C(Cc1ccccc1)NC(=O)c1cnccn1)B(O)O` (configuration not stated) + CC(C)NCC(C(=O)N1CCN(c2ncnc3c2C(C)CC3O)CC1)c1ccc(Cl)cc1?
**A.** IC50 [1]: > 10 nM; IC50 [2]: > 10 nM; IC50 [3]: > 10 nM; IC50 [4]: > 10 nM; IC50 [5]: > 10 nM; viability, T/C (second compound 0.3 µM, first compound 31.6 pM): 101%; viability, T/C (second compound 0.3 µM, first compound 0.0001 µM): 101%; viability, T/C (second compound 0.3 µM, first compound 0.000316 µM): 108%; viability, T/C (second compound 0.3 µM, first compound 0.001 µM): 102%; viability, T/C [6]: 98.3%; viability, T/C [7]: 98.1%; viability, T/C (second compound 0.949 µM, first compound 31.6 pM): 103%; viability, T/C (second compound 0.949 µM, first compound 0.0001 µM): 102%; viability, T/C (second compound 0.949 µM, first compound 0.000316 µM): 96.1%; viability, T/C (second compound 0.949 µM, first compound 0.001 µM): 100%; viability, T/C [8]: 105%; viability, T/C [9]: 85.5%; viability, T/C (second compound 3 µM, first compound 31.6 pM): 108%; viability, T/C (second compound 3 µM, first compound 0.0001 µM): 109%; viability, T/C (second compound 3 µM, first compound 0.000316 µM): 106%; viability, T/C (second compound 3 µM, first compound 0.001 µM): 98.8%; viability, T/C [10]: 106%; viability, T/C [11]: 89%; viability, T/C (second compound 9.49 µM, first compound 31.6 pM): 98.5%; viability, T/C (second compound 9.49 µM, first compound 0.0001 µM): 98.7%; viability, T/C (second compound 9.49 µM, first compound 0.000316 µM): 99.3%; viability, T/C (second compound 9.49 µM, first compound 0.001 µM): 104%; viability, T/C [12]: 98.9%; viability, T/C [13]: 97.5%; viability, T/C (second compound 30 µM, first compound 31.6 pM): 87.7%; viability, T/C (second compound 30 µM, first compound 0.0001 µM): 91.9%; viability, T/C (second compound 30 µM, first compound 0.000316 µM): 87.4%; viability, T/C (second compound 30 µM, first compound 0.001 µM): 85.4%; viability, T/C [14]: 95.3%; viability, T/C [15]: 87.2%

**Q.** How did the IC50 [1] turn out when `COc1c(OCCCN2CCOCC2)ccc2c3n(c(=NC(=O)c4cnc(N)nc4)nc12)CCN3` + CC(C)NCC(C(=O)N1CCN(c2ncnc3c2C(C)CC3O)CC1)c1ccc(Cl)cc1 was run?
**A.** Its IC50 is over 1000 nM.

**Q.** What about the IC50 [2] of the same molecule?
**A.** The IC50 was over 1000 nM.

**Q.** And the IC50 [3]?
**A.** Its IC50 is over 1000 nM.

**Q.** What about the IC50 [4] of the same molecule?
**A.** Its IC50 is over 1000 nM.

**Q.** And the IC50 [5]?
**A.** Its IC50 is over 1000 nM.

**Q.** What about the viability, T/C [6] of the same molecule?
**A.** The viability, T/C was 95.4%.

**Q.** And the viability, T/C [7]?
**A.** The viability, T/C was 101%.

**Q.** And the viability, T/C (second compound 0.3 µM, first compound 0.0316 µM)?
**A.** Its viability, T/C is 89.3%.

**Q.** What about the viability, T/C (second compound 0.3 µM, first compound 0.1 µM) of the same molecule?
**A.** Its viability, T/C is 85.1%.

**Q.** What about the viability, T/C (second compound 0.3 µM, first compound 0.316 µM) of the same molecule?
**A.** The viability, T/C was 69.4%.

**Q.** And the viability, T/C (second compound 0.3 µM, first compound 1 µM)?
**A.** The viability, T/C was 66.8%.

**Q.** What about the viability, T/C [8] of the same molecule?
**A.** The viability, T/C was 101%.

**Q.** And the viability, T/C [9]?
**A.** Its viability, T/C is 96.7%.

**Q.** And the viability, T/C (second compound 0.949 µM, first compound 0.0316 µM)?
**A.** The viability, T/C was 94%.

**Q.** And the viability, T/C (second compound 0.949 µM, first compound 0.1 µM)?
**A.** The viability, T/C was 84.7%.

**Q.** What about the viability, T/C (second compound 0.949 µM, first compound 0.316 µM) of the same molecule?
**A.** The viability, T/C was 71.3%.

**Q.** And the viability, T/C (second compound 0.949 µM, first compound 1 µM)?
**A.** Its viability, T/C is 70%.

**Q.** And the viability, T/C [10]?
**A.** Its viability, T/C is 105%.

**Q.** What about the viability, T/C [11] of the same molecule?
**A.** The viability, T/C was 100%.

**Q.** What about the viability, T/C (second compound 3 µM, first compound 0.0316 µM) of the same molecule?
**A.** Its viability, T/C is 98.3%.

**Q.** And the viability, T/C (second compound 3 µM, first compound 0.1 µM)?
**A.** The viability, T/C was 89.9%.

**Q.** What about the viability, T/C (second compound 3 µM, first compound 0.316 µM) of the same molecule?
**A.** Its viability, T/C is 71.6%.

**Q.** And the viability, T/C (second compound 3 µM, first compound 1 µM)?
**A.** The viability, T/C was 60.2%.

**Q.** What about the viability, T/C [12] of the same molecule?
**A.** The viability, T/C was 102%.

**Q.** And the viability, T/C [13]?
**A.** Its viability, T/C is 94.7%.

**Q.** What about the viability, T/C (second compound 9.49 µM, first compound 0.0316 µM) of the same molecule?
**A.** Its viability, T/C is 88.6%.

**Q.** And the viability, T/C (second compound 9.49 µM, first compound 0.1 µM)?
**A.** Its viability, T/C is 85%.

**Q.** What about the viability, T/C (second compound 9.49 µM, first compound 0.316 µM) of the same molecule?
**A.** The viability, T/C was 78%.

**Q.** And the viability, T/C (second compound 9.49 µM, first compound 1 µM)?
**A.** Its viability, T/C is 67%.

**Q.** What about the viability, T/C [14] of the same molecule?
**A.** Its viability, T/C is 91.8%.

**Q.** What about the viability, T/C [15] of the same molecule?
**A.** The viability, T/C was 81.3%.

**Q.** What about the viability, T/C (second compound 30 µM, first compound 0.0316 µM) of the same molecule?
**A.** Its viability, T/C is 79.4%.

**Q.** And the viability, T/C (second compound 30 µM, first compound 0.1 µM)?
**A.** The viability, T/C was 69.5%.

**Q.** And the viability, T/C (second compound 30 µM, first compound 0.316 µM)?
**A.** Its viability, T/C is 68.7%.

**Q.** What about the viability, T/C (second compound 30 µM, first compound 1 µM) of the same molecule?
**A.** Its viability, T/C is 59.1%.
